In the supplement of paper PMC10883282:

Columns and labels:
Experiment in all cases: relative viability vs DMSO control (72 h) (fraction); higher = more viable cells
MES-SA = system: MES-SA
Outline: (§1)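 Serially diluted compound, 2.5 µl from source plates spanning 10 mM to 0.0002 mM, was added 24 h after sarcoma cell lines were seeded in 384-well plates at densities targeting 80–90% confluence. Plates then sat 72 h at 37 °C, 5% CO2, with 0.1% DMSO vehicle and a 5 µM positive control. Relative viability came from ATPLite as percent growth, averaged over up to triplicate wells, and was rescaled with 1 as full and 0 as none.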

SK-LMS-1 = system: SK-LMS-1
Outline: as §1

SK-ES-1 = system: SK-ES-1
Outline: as §1

SYO-1 = system: SYO-1
Outline: as §1

SW1353 = system: SW1353
Outline: as §1

RD-ES = system: RD-ES
Outline: as §1

VA-ES-BJ = system: VA-ES-BJ
Outline: as §1

HT1080 = system: HT1080
Outline: as §1

RD = system: RD
Outline: as §1

KHOS-240S = system: KHOS-240S
Outline: as §1

SW982 = system: SW982
Outline: as §1

G401 = system: G401
Outline: as §1

C[C@H]1Oc2cc(cnc2N)-c2c(nn(C)c2C#N)CN(C)C(=O)c2ccc(F)cc21 [Lorlatinib]
Conditions	relative viability
G401, 0.00017 µM	1.05
G401, 0.00051 µM	1.05
G401, 0.00152 µM	1.04
G401, 0.00457 µM	1.03
G401, 0.01372 µM	1.06
G401, 0.04115 µM	1.02
G401, 0.1235 µM	0.968
G401, 0.3704 µM	0.984
G401, 1.111 µM	1
G401, 3.333 µM	1.01
G401, 10 µM	0.916
HT1080, 0.00017 µM	1.09
HT1080, 0.00051 µM	1.08
HT1080, 0.00152 µM	1.09
HT1080, 0.00457 µM	1.1
HT1080, 0.01372 µM	1.08
HT1080, 0.04115 µM	1.03
HT1080, 0.1235 µM	1.07
HT1080, 0.3704 µM	1.09
HT1080, 1.111 µM	1.03
HT1080, 3.333 µM	1.09
HT1080, 10 µM	1.05
KHOS-240S, 0.00017 µM	1.06
KHOS-240S, 0.00051 µM	1.08
KHOS-240S, 0.00152 µM	1.07
KHOS-240S, 0.00457 µM	1.07
KHOS-240S, 0.01372 µM	1.06
KHOS-240S, 0.04115 µM	1.01
KHOS-240S, 0.1235 µM	1.01
KHOS-240S, 0.3704 µM	1.01
KHOS-240S, 1.111 µM	0.969
KHOS-240S, 3.333 µM	0.915
KHOS-240S, 10 µM	0.865
MES-SA, 0.00017 µM	0.955
MES-SA, 0.00051 µM	0.987
MES-SA, 0.00152 µM	0.943
MES-SA, 0.00457 µM	0.929
MES-SA, 0.01372 µM	0.922
MES-SA, 0.04115 µM	0.923
MES-SA, 0.1235 µM	0.911
MES-SA, 0.3704 µM	0.919
MES-SA, 1.111 µM	0.897
MES-SA, 3.333 µM	0.892
MES-SA, 10 µM	0.879
RD, 0.00017 µM	1.09
RD, 0.00051 µM	1.11
RD, 0.00152 µM	1.11
RD, 0.00457 µM	1.09
RD, 0.01372 µM	1.12
RD, 0.04115 µM	1.07
RD, 0.1235 µM	1.02
RD, 0.3704 µM	1
RD, 1.111 µM	0.948
RD, 3.333 µM	0.838
RD, 10 µM	0.668
RD-ES, 0.00017 µM	0.973
RD-ES, 0.00051 µM	0.96
RD-ES, 0.00152 µM	0.972
RD-ES, 0.00457 µM	0.978
RD-ES, 0.01372 µM	0.969
RD-ES, 0.04115 µM	0.9601
RD-ES, 0.1235 µM	0.965
RD-ES, 0.3704 µM	0.891
RD-ES, 1.111 µM	0.861
RD-ES, 3.333 µM	0.74
RD-ES, 10 µM	0.499
SK-ES-1, 0.00017 µM	1.02
SK-ES-1, 0.00051 µM	1.03
SK-ES-1, 0.00152 µM	1.06
SK-ES-1, 0.00457 µM	1.05
SK-ES-1, 0.01372 µM	1.01
SK-ES-1, 0.04115 µM	1.01
SK-ES-1, 0.1235 µM	1.023
SK-ES-1, 0.3704 µM	1.03
SK-ES-1, 1.111 µM	1
SK-ES-1, 3.333 µM	0.89
SK-ES-1, 10 µM	0.571
SK-LMS-1, 0.00017 µM	1.12
SK-LMS-1, 0.00051 µM	1.095
SK-LMS-1, 0.00152 µM	1.081
SK-LMS-1, 0.00457 µM	1.09
SK-LMS-1, 0.01372 µM	1.1
SK-LMS-1, 0.04115 µM	1.09
SK-LMS-1, 0.1235 µM	1.07
SK-LMS-1, 0.3704 µM	1.02
SK-LMS-1, 1.111 µM	1.02
SK-LMS-1, 3.333 µM	1
SK-LMS-1, 10 µM	0.933
SW982, 0.00017 µM	1.012
SW982, 0.00051 µM	1.04
SW982, 0.00152 µM	1.02
SW982, 0.00457 µM	1.04
SW982, 0.01372 µM	1.03
SW982, 0.04115 µM	1.03
SW982, 0.1235 µM	0.895
SW982, 0.3704 µM	0.826
SW982, 1.111 µM	0.762
SW982, 3.333 µM	0.768
SW982, 10 µM	0.64
SW1353, 0.00017 µM	1.04
SW1353, 0.00051 µM	1.06
SW1353, 0.00152 µM	1.027
SW1353, 0.00457 µM	0.992
SW1353, 0.01372 µM	0.985
SW1353, 0.04115 µM	1
SW1353, 0.1235 µM	0.976
SW1353, 0.3704 µM	0.889
SW1353, 1.111 µM	0.851
SW1353, 3.333 µM	0.839
SW1353, 10 µM	0.792
SYO-1, 0.00017 µM	0.99
SYO-1, 0.00051 µM	0.982
SYO-1, 0.00152 µM	0.985
SYO-1, 0.00457 µM	0.966
SYO-1, 0.01372 µM	0.966
SYO-1, 0.04115 µM	0.921
SYO-1, 0.1235 µM	0.873
SYO-1, 0.3704 µM	0.844
SYO-1, 1.111 µM	0.768
SYO-1, 3.333 µM	0.737
SYO-1, 10 µM	0.66
VA-ES-BJ, 0.00017 µM	1.056
VA-ES-BJ, 0.00051 µM	1.08
VA-ES-BJ, 0.00152 µM	1.05
VA-ES-BJ, 0.00457 µM	1.03
VA-ES-BJ, 0.01372 µM	1.02
VA-ES-BJ, 0.04115 µM	0.989
VA-ES-BJ, 0.1235 µM	0.989
VA-ES-BJ, 0.3704 µM	0.956
VA-ES-BJ, 1.111 µM	0.966
VA-ES-BJ, 3.333 µM	0.955
VA-ES-BJ, 10 µM	0.87
